Bounds are passed on as bounds.

Format in all cases: biochemical
For one assay, the target named is h4D7 (Homo sapiens, UniProt Q08499). The assay can be described thus: In-vitro assay for PDE4 enzymes, real-time enzyme-coupled spectrophotometric assay (Table 3). As for the experimental part:
(§1) In-vitro assay for PDE4 enzymes. The in-vitro activity of PDE4 enzymes and the in-vitro potency of therapeutic agents described in the present invention was measured using a real-time, enzyme-coupled spectrophotometric assay. By using three different coupling enzymes, the product of the PDE4 reaction is coupled to the oxidation of the reduced form β-nicotinamide adenine dinucleotide (NADH), which dissipation can be monitored spectrophotmetrically at […]. Assay description. Buffer A containing 50 mM Tris, pH 8.0, 16 mM MgCl2 and 80 mM KCl is prepared and stored at room temperature. Buffer B containing 50 mM Tris, pH 8.0 is prepared and stored at toom temperature. Stock solutions of the following reagents are prepared in Buffer B and stored at −20° C.: Adenosine-5′-triphosphate (ATP), cyclic adenosine-5′-monophosphate (cAMP), phosphoenolpyruvate (PEP) and NADH. An assay mix is prepared by mixing Buffer A, […] (TCEP), ATP, PEP, NADH, myokinase (MK), pyruvate kinase (PK), lactate dehydroganese (LDH) and PDE4 to a final volume of 20 mL, which is enough for a single 96-well assay plate. Assay mix (180 μL) and test article (10 μL) in 1:1 DMSO/H2O mixture is pre-incubated at room temperature for 10 min. The enzymatic reaction is initiated by addition of cAMP (10 μL). Final concentration of all components in the assay (200 μL/well) are as follows: 10 mM MgCl2, 50 mM KCl, 5 mM TCEP, 2.5% DMSO, 0.4 mM NADH, 1 mM PEP, 0.04 mM ATP, 5 units MK, 1 unit PK, 1 unit LDH and appropriate amount of PDE4. Reaction progress curves are monitored in a plate reader capable of measuring light absorbance at 340 nm. A decrease in light absorbance at 340 nm is due to oxidation of NADH. Positive controls containing no test article and negative controls containing no test article and no cAMP are included on every assay plate. Reaction rates are determined from the slopes of the linear portions of the progress curves. All data is percent normalized with respect to controls and presented as percent inhibition.

In the next assay the target is human PDE4B isozyme (Homo sapiens, UniProt Q07343). The assay can be described thus: IC50 for human PDE4B isozyme (Table 5). Particulars: read-out: IC50 for human PDE4B isozyme, hPDE4B. The method, then: as §1
Chain of human PDE4B isozyme (Q07343 whole entry): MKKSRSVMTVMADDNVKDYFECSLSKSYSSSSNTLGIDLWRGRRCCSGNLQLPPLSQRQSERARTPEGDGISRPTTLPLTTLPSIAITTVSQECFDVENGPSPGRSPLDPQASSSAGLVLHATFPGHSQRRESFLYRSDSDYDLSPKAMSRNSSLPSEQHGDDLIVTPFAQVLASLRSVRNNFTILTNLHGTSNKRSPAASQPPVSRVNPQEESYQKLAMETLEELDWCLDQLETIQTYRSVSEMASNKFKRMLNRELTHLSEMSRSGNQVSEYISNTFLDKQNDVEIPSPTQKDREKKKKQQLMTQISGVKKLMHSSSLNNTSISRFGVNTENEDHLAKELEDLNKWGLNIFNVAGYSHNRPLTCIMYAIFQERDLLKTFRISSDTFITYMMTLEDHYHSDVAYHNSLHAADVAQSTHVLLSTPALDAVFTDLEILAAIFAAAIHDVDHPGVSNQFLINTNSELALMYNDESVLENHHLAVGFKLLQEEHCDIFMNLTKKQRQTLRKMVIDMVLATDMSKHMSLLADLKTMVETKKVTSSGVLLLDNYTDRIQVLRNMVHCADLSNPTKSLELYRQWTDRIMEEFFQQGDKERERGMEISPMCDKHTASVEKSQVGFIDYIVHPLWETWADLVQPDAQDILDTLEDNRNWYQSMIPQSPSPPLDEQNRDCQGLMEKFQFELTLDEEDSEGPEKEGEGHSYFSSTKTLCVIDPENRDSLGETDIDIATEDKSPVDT
The target of a further assay is human PDE4D isozyme (Homo sapiens, UniProt Q08499). The assay can be described thus: IC50 for human PDE4D isozyme (Table 4). The settings on record: read-out: IC50 for human PDE4D isozyme, hPDE4D. The method, then:
as §1

Chain of human PDE4D isozyme (Q08499 whole entry): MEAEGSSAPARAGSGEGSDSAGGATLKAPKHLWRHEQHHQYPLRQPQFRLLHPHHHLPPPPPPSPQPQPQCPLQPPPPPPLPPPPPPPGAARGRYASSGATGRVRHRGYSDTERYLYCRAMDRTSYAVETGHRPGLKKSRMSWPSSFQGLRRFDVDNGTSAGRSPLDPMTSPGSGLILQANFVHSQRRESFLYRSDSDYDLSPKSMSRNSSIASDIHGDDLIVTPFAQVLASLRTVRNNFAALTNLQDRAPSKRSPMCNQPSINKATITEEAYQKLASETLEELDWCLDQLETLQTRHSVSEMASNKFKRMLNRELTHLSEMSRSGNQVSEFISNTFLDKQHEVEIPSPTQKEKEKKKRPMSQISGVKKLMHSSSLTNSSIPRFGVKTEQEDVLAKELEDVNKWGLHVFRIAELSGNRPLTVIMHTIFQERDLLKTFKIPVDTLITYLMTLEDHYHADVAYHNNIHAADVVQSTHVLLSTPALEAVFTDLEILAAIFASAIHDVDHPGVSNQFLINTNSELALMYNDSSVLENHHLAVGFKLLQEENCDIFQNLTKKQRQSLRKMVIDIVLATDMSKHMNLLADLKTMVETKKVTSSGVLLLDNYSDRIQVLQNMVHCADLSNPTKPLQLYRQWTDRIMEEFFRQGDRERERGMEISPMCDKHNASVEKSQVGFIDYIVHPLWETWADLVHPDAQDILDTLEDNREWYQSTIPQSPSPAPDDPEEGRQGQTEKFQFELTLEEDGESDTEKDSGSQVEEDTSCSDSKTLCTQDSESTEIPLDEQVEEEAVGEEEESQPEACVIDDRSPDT
Chain of h4D7 (Q08499 1-748 isoform Q08499-11): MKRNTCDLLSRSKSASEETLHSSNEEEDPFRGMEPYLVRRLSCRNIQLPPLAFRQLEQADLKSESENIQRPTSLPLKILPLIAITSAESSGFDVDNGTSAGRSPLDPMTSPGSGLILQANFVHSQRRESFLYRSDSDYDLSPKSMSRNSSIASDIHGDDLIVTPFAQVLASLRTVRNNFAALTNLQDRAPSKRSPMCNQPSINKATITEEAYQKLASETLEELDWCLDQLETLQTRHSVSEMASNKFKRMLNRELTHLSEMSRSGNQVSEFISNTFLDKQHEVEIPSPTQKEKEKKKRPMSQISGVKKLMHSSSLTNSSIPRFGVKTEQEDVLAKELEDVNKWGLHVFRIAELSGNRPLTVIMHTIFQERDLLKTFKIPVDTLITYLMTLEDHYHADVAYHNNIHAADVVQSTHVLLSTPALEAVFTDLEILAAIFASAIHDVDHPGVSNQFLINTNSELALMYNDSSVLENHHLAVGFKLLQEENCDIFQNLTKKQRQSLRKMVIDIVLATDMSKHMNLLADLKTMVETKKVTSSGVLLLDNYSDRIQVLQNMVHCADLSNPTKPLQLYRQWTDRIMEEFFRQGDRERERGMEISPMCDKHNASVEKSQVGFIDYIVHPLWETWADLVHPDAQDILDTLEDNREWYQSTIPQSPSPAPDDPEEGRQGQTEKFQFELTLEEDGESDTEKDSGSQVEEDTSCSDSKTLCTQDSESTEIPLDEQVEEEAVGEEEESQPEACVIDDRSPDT

What is called IC50 is the concentration at which inhibition is half-maximal. Take `NC(=O)NC1CCN(Cc2cc3scnc3c(-c3cccc(Cl)c3)c2F)CC1` [Example 46, [1-[4-(3-Chloro-phenyl)-5-fluoro-benzothiazol-6-ylmethyl]-piperidin-4-yl]-urea]: the IC50 against h4D7 fell in the range of 1 to 10 µM.
Turning to `CC(=O)c1cccc(-c2cc(Cn3cccn3)cc3sc(N)nc23)c1` [BA-12, 1-[3-(2-Amino-6-pyrazol-1-ylmethyl-benzothiazol-4-yl)-phenyl]-ethanone], the IC50 at human PDE4B isozyme and on human PDE4D isozyme was less than 5 µM in each case.
Turning to `CS(=O)(=O)Nc1ccc(Cc2cc(-c3cccc(Cl)c3)c3nc(N)sc3c2)cc1` [BA-18, N-{4-[2-Amino-4-(3-chloro-phenyl)-benzothiazol-6-ylmethyl]-phenyl}-methanesulfonamide], the IC50 is 5 to 20 µM at human PDE4B isozyme and less than 5 µM on human PDE4D isozyme.
The like results for `Nc1nc2c(-c3ccc4c(c3)OCO4)cc(Cc3ccc(F)cc3)cc2s1` [BA-04, 4-Benzo[1,3]dioxol-5-yl-6-(4-fluoro-benzyl)-benzothiazol-2-ylamine] were, in that order, less than 5 µM and less than 5 µM.
The corresponding values for `Fc1c(Cc2ccc(N3CCC3)nc2)cc2scnc2c1-c1cccc(Cl)c1` [BA-61, 6-(6-azetidin-1-yl-pyridin-3-ylmethyl)-4-(3-chloro-phenyl)-5-fluoro-benzothiazole] are less than 5 µM and less than 5 µM.
As for `Nc1nc2c(-c3ccc4c(c3)OCO4)cc(Cn3cccn3)cc2s1` [BA-09, 4-Benzo[1,3]dioxol-5-yl-6-pyrazol-1-ylmethyl-benzothiazol-2-ylamine], the IC50 on human PDE4B isozyme and on human PDE4D isozyme was less than 5 µM in each case.
For the compound `Oc1cccc(Cc2cc3scnc3c(-c3cccc(Cl)c3)c2F)c1` [BA-39, 3-[4-(3-chloro-phenyl)-5-fluoro-benzothiazol-6-ylmethyl]-phenol], the IC50 at human PDE4B isozyme and at human PDE4D isozyme was less than 5 µM throughout.
As to `Nc1nc2c(-c3ccc4nonc4c3)cc(Cc3ccc(F)cc3)cc2s1` [BA-03, 4-Benzol[1,2,5]oxadiazol-5-yl-6-(4-fluoro-benzyl)-benzothiazol-2-yl amine], the IC50 on human PDE4B isozyme and on human PDE4D isozyme was less than 5 µM each time.
For the compound `Fc1c(CN2CCNCC2)cc2scnc2c1-c1cccc(Cl)c1` [BA-48, 4-(3-Chloro-phenyl)-5-fluoro-6-piperazin-1-ylmethyl-benzothiazole], the IC50 at human PDE4B isozyme is 5 to 20 µM; at human PDE4D isozyme, less than 5 µM.
As to `Nc1nc2c(-c3cccc(C(F)(F)F)c3)cc(Cc3ccc(F)cc3)cc2s1` [BA-07, 6-(4-Fluoro-benzyl)-4-(3-trifluoromethyl-phenyl)-benzothiazol-2-ylamine], the IC50 at human PDE4B isozyme and at human PDE4D isozyme was less than 5 µM in each case.
On to `Nc1ccc(Cc2cc3scnc3c(-c3cccc(Cl)c3)c2F)cn1` [BA-63, 5-[4-(3-chloro-phenyl)-5-fluoro-benzothiazol-6-ylmethyl]-pyridin-2-ylamine], for which the IC50 at human PDE4B isozyme and at human PDE4D isozyme was less than 5 µM each time.
Regarding `Nc1ccc(Cc2cc3sc(N)nc3c(-c3cccc(Cl)c3)c2F)cc1` [BA-16, 6-(4-amino-benzyl)-4-(3-chloro-phenyl)-5-fluoro-benzothiazol-2-ylamine], the IC50 on human PDE4B isozyme and on human PDE4D isozyme was less than 5 µM each time.
Consider `Nc1nc2c(-c3ccc4c(c3)OCO4)cc(C(O)c3ccc(F)cc3)cc2s1` (centres unmarked) [Example 5, (2-Amino-4-benzo[1,3]dioxol-5-yl-benzothiazol-6-yl)-(4-fluoro-phenyl)-methanol], for which, at h4D7, the IC50 lay within 1 to 10 µM.
With `O=C1CCCN1Cc1cc2scnc2c(-c2cccc(Cl)c2)c1F` [BA-54, 1-[4-(3-Chloro-phenyl)-5-fluoro-benzothiazol-6-ylmethyl]-pyrrolidin-2-one], the IC50 on human PDE4B isozyme and at human PDE4D isozyme was less than 5 µM in each case.
As to `Nc1ccc(Cc2cc(-c3cccc(Cl)c3)c3ncsc3c2)cc1` [BA-25, 4-[4-(3-Chloro-phenyl)-benzothiazol-6-ylmethyl]-phenylamine], the concentration for half-maximal inhibition (IC50) at human PDE4B isozyme and on human PDE4D isozyme was less than 5 µM each time.
Regarding `Clc1cccc(-c2cc(Cc3ccc(N4CCCC4)nc3)cc3scnc23)c1` [BA-59, 4-(3-chloro-phenyl)-6-(6-pyrrolidin-1-yl-pyridin-3-ylmethyl)-benzothiazole], the IC50 on human PDE4B isozyme was 20 to 40 µM; at human PDE4D isozyme, less than 5 µM.
On to `O=C1CNCCN1Cc1cc2scnc2c(-c2cccc(Cl)c2)c1F` [BA-73, 1-[4-(3-Chloro-phenyl)-5-fluoro-benzothiazol-6-ylmethyl]-piperazin-2-one], for which the IC50 on human PDE4B isozyme and on human PDE4D isozyme was less than 5 µM each time.
Turning to `Nc1nc2c(-c3ccc4c(c3)OCO4)nc(Cc3ccc(F)cc3)nc2s1` [BA-11, 7-Benzo[1,3]dioxol-5-yl-5-(4-fluorobenzyl)-thiazolo[5,4-d]pyrimidin-2-ylamine], the IC50 at human PDE4B isozyme and at human PDE4D isozyme was less than 5 µM in each case.
Turning to `Nc1ccc(Cc2cc3scnc3c(-c3cccc(Cl)c3)c2F)cc1` [BA-23, 4-[4-(3-chloro-phenyl)-5-fluoro-benzothiazol-6-ylmethyl]-phenylamine], the IC50 on human PDE4B isozyme and on human PDE4D isozyme was less than 5 µM throughout.
On to `CCOC(=O)Nc1ccc(Cc2cc3scnc3c(-c3cccc(Cl)c3)c2F)cn1` [BA-40, {5-[4-(3-chloro-phenyl)-5-fluoro-benzothiazol-6-ylmethyl]-pyridin-2-yl}-carbamic acid ethyl ester], for which the IC50 at human PDE4B isozyme and on human PDE4D isozyme was less than 5 µM in each case.
As for `Cn1nccc1Cc1cc(-c2ccc3c(c2)OCO3)c2nc(N)sc2c1` [BA-08, 4-Benzo[1,3]dioxol-5-yl-6-(2-methyl-2H-pyrazol-3-ylmethyl)-benzothiazol-2-ylamine], the IC50 on human PDE4B isozyme and on human PDE4D isozyme was less than 5 µM in each case.
For `Nc1nc2c(-c3cccc([N+](=O)[O-])c3)cc(Cn3cccn3)cc2s1` [BA-10, 4-(3-Nitro-phenyl)-6-pyrazol-1-ylmethyl-benzothiazol-2-ylamine], the IC50 at human PDE4B isozyme and at human PDE4D isozyme was less than 5 µM each time.
`O=C1CN(Cc2cc3scnc3c(-c3cccc(Cl)c3)c2F)CCN1` [BA-71, 4-[4-(3-Chloro-phenyl)-5-fluoro-benzothiazol-6-ylmethyl]-piperazin-2-one]: the IC50 at human PDE4B isozyme and at human PDE4D isozyme was less than 5 µM throughout.
In the case of `Nc1nc2c(-c3ccc4c(c3)OCO4)cc(C(O)c3ccc(F)cc3)cc2s1` (centres unmarked) [BA-05, (2-Amino-4-benzo[1,3]dioxol-5-yl-benzothiazol-6-yl)-(4-fluoro-phenyl)-methanol], the IC50 at human PDE4B isozyme and on human PDE4D isozyme was less than 5 µM each time.
In the case of `COc1ccc(Cc2cc3scnc3c(-c3cccc(Cl)c3)c2F)cn1` [BA-38, 4-(3-chloro-phenyl)-5-fluoro-6-(6-methoxy-pyridin-3-ylmethyl)-benzothiazole], the IC50 at human PDE4B isozyme and on human PDE4D isozyme was less than 5 µM throughout.
Consider `NC(=O)N1CCN(Cc2cc3scnc3c(-c3cccc(Cl)c3)c2F)CC1` [BA-31, 4-[4-(3-Chloro-phenyl)-5-fluoro-benzothiazol-6-ylmethyl]-piperazine-1-carboxylic acid amide], for which the IC50 on human PDE4B isozyme and at human PDE4D isozyme was less than 5 µM throughout.
For `NC(=O)Nc1ccc(Cc2cc3sc(N)nc3c(-c3cccc(Cl)c3)c2F)cc1` [BA-21, {4-[2-amino-4-(3-chloro-phenyl)-5-fluoro-benzothiazol-6-ylmethyl]-phenyl}-urea], the IC50 on human PDE4B isozyme and at human PDE4D isozyme was less than 5 µM in each case.
In the case of `Fc1c(CN2CCOCC2)cc2scnc2c1-c1cccc(Cl)c1` [BA-43, 4-(3-Chloro-phenyl)-5-fluoro-6-morpholin-4-ylmethyl-benzothiazole], the IC50 at human PDE4B isozyme and on human PDE4D isozyme was less than 5 µM throughout.
Consider `CN(C)CC(=O)Nc1ccc(Cc2cc3scnc3c(-c3cccc(Cl)c3)c2F)cn1` [BA-64, N-{5-[4-(3-chloro-phenyl)-5-fluoro-benzothiazol-6-ylmethyl]-pyridin-2-yl}-2-dimethylamino-acetamide], for which the IC50 at human PDE4B isozyme and at human PDE4D isozyme was less than 5 µM throughout.
Regarding `NC(=O)Nc1ccc(Cc2cc(-c3cccc(Cl)c3)c3nc(N)sc3c2)cc1` [BA-27, {4-[2-Amino-4-(3-chloro-phenyl)-benzothiazol-6-ylmethyl]-phenyl}-urea], the IC50 on human PDE4B isozyme and on human PDE4D isozyme was less than 5 µM throughout.
As for `Nc1ccc(Cc2cc(-c3cccc(Cl)c3)c3nc(N)oc3c2)cc1` [BA-32, 6-(4-aminobenzyl)-4-(3-chlorophenyl)-1,3-benzoxazol-2-amine], the IC50 at human PDE4B isozyme and on human PDE4D isozyme was less than 5 µM throughout.
For the compound `Nc1nc2c(-c3cccc([N+](=O)[O-])c3)cc(Cc3ccc(F)cc3)cc2s1` [BA-01, 6-(4-fluorobenzyl)-4-(3-nitrophenyl)-benzothiazol-2-yl amine], the IC50 on human PDE4B isozyme and at human PDE4D isozyme was less than 5 µM in each case.

For the origin of these results see patent US8883833B2, “Substituted benzoazole PDE4 inhibitors for treating inflammatory, cardiovascular and CNS disorders” (Decode Genetics EHF, priority 2007, dated 2014).
